Measurements taken from US10537611B2, “Methods of treating lung cancer” (Five Prime Therapeutics, Inc., priority 2011, dated 2020).

Test: Serum phosphate in rats
Type: in vivo, rat
Conditions: 50 mg/kg/day oral gavage, at 24 hour or 1 week of daily dosing
Method: In the first experiment, Sprague Dawley rats (Charles River Labs; N=5/group) were dosed with vehicle, 10, 50 or 200 mg/kg/qwk of FGFR1-ECD.339-Fc for four weekly doses and plasma concentrations of FGFR1-ECD.339-Fc were determined throughout the study by an ELISA based detection method.
In the second experiment, Sprague Dawley rats (Charles River Labs; N=5/group) were administered the FGFR kinase inhibitor PD173074 (Chemdea, Ridgewood, N.J.; 50 mg/kg/day) or vehicle control by oral gavage for 7 days; or were administered FGFR1-ECD.339-Fc (200 mg/kg) or appropriate vehicle weekly by intravenous administration. Blood samples were collected at the time points indicated and serum phosphate was determined at 24 and 168 hours post-initiation of dosing (Idexx laboratories, Westbrook, Mass.).

plasma phosphate levels: significantly elevated
SMILES: CCN(CC)CCCCNc1ncc2cc(-c3cc(OC)cc(OC)c3)c(NC(=O)NC(C)(C)C)nc2n1 [PD173043]
